For test [1], the target named is T1, full-length recombinant rat vitamin D receptor (Rattus norvegicus, UniProt P13053).
T1 construct: Full-length recombinant rat receptor was expressed in E. coli; histidine tag (C); made in house; host or cells: E. coli BL21 (DE3) Codon Plus RIL
T1 sequence (P13053 1-423): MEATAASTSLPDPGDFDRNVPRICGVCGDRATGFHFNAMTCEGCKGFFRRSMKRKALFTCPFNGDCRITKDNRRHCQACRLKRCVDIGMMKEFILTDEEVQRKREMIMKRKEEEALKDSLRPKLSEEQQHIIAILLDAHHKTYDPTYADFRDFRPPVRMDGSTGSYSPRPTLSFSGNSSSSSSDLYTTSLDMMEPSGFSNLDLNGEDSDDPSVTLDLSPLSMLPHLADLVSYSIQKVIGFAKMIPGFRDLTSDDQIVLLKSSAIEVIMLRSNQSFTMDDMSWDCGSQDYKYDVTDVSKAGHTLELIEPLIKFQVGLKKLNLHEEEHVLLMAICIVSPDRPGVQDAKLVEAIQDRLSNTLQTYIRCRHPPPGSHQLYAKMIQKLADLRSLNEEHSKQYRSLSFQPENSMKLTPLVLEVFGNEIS
Put plainly: Vitamin D receptor binding (competition with [3H]-1,25(OH)2D3). Conditions: full-length recombinant rat VDR; FIG. 1. Here is the method: Full-length recombinant rat receptor was expressed in E. coli BL21 (DE3) Codon Plus RIL cells and purified to homogeneity using two different column chromatography systems. The first system was a nickel affinity resin that utilizes the C-terminal histidine tag on this protein. The protein that was eluted from this resin was further purified using ion exchange chromatography (S-Sepharose Fast Flow). Aliquots of the purified protein were quick frozen in liquid nitrogen and stored at −80° C. until use. For use in binding assays, the protein was diluted in TEDK50 (50 mM Tris, 1.5 mM EDTA, pH7.4, 5 mM DTT, 150 mM KCl) with 0.1% Chaps detergent. The receptor protein and ligand concentration were optimized such that no more than 20% of the added radiolabeled ligand was bound to the receptor.
Radiolabeled and unlabeled ligands were added to 100 mcl of the diluted protein at a final ethanol concentration of ≦10%, mixed and incubated overnight on ice to reach binding equilibrium. The following day, 100 mcl of hydroxylapatite slurry (50%) was added to each tube and mixed at 10-minute intervals for 30 minutes. […] After the final wash, the pellets were transferred to scintillation vials containing 4 ml of Biosafe II scintillation cocktail, mixed and placed in a scintillation counter. Total binding was determined from the tubes containing only radiolabeled ligand.

Test [2] deals with Human promyelocytic leukemia (HL60) cells. As to the kind of experiment: HL-60 differentiation (nitro blue tetrazolium reduction). The following applies: FIG. 2; for EC50: HL60 cells, 4 days, NBT reduction. It is filed as cell-based. The protocol: The study drugs were dissolved in ethanol and the concentrations determined using UV spectrophotometry. Serial dilutions were prepared so that a range of drug concentrations could be tested without changing the final concentration of ethanol (≦0.2%) present in the cell cultures.
Human promyelocytic leukemia (HL60) cells were grown in RPMI-1640 medium containing 10% fetal bovine serum. The cells were incubated at 37° C. in the presence of 5% CO2.
HL60 cells were plated at 1.2×10^5 cells/ml. Eighteen hours after plating, cells in duplicate were treated with drug. Four days later, the cells were harvested and a nitro blue tetrazolium reduction assay was performed (Collins et al., 1979; J. Exp. Med. 149:969-974). The percentage of differentiated cells was determined by counting a total of 200 cells and recording the number that contained intracellular black-blue formazan deposits. Verification of differentiation to monocytic cells was determined by measuring phagocytic activity (data not shown).

Test [3] concerns 24-hydroxylase (24Ohase) gene promoter. As to the kind of experiment: In vitro transcription assay (luciferase reporter in ROS 17/2.8 bone cells). The following applies: FIG. 3; for EC50: ROS 17/2.8 cells, 24Ohase promoter-luciferase, 16 h, read-out: EC50, transcriptional activity in bone cells. It is filed as cell-based. Here is the method: Transcription activity was measured in ROS 17/2.8 (bone) cells that were stably transfected with a 24-hydroxylase (24Ohase) gene promoter upstream of a luciferase reporter gene (Arbour et al., 1998). Cells were given a range of doses. Sixteen hours after dosing the cells were harvested and luciferase activities were measured using a luminometer.
RLU=Relative Luciferase Units.
(In general: A reporter such as luciferase makes a cellular process visible.)

Test [4] is described as follows: Bone calcium mobilization (serum calcium) in vitamin D-deficient rats. The test is classed as in vivo, rat. The protocol:
(§1) Male, weanling Sprague-Dawley rats were placed on Diet 11 (0.47% Ca) diet +AEK for one week followed by Diet 11 (0.02% Ca) +AEK for 3 weeks. The rats were then switched to a diet containing 0.47% Ca for one week followed by two weeks on a diet containing 0.02% Ca. Dose administration began during the last week on 0.02% calcium diet. Four consecutive ip doses were given approximately 24 hours apart. Twenty-four hours after the last dose, blood was collected from the severed neck and the concentration of serum calcium determined as a measure of bone calcium mobilization. The first 10 cm of the intestine was also collected for intestinal calcium transport analysis using the everted gut sac method.

The nature of test [5]: Intestinal calcium transport (everted gut sac) in vitamin D-deficient rats. It is filed as in vivo, rat. Conditions: for Intestinal calcium transport: everted gut sac, vitamin D-deficient rats, FIG. 5. Here is the method: as §1

Regarding `CCC(C)(C)C1CCC2C(=CC=C3CC(O)C(=CCCO)C(O)C3)CCCC21C` (stereo not drawn) [20DC, 1α-hydroxy-2-[3′-hydroxypropylidene]-20-methyl-19,24,25,26,27-pentanorvitamin D3], in test [1], the “Binding to vitamin D receptor compared to 1,25-(OH)2D3 (in words)” value is on record as “bound equally well”. Further, the Ki in test [1] is 0.08 nM. The “HL-60 cell differentiation potency compared to 1,25(OH)2D3 (in words)” value in test [2] is recorded as “about as potent as 1,25(OH)2D3”. Besides, the EC50 was found to be 50 nM in test [2] (Homo sapiens, HL-60, 96 h) and 2 nM in test [3]. Further, the “Transcriptional activity in bone cells compared to 1α,25-dihydroxyvitamin D3 (in words)” value in test [3] is “about the same transcriptional activity”. For the same compound, the “Bone calcium mobilization (serum calcium)” value is “did not result in mobilization of bone calcium” in test [4] (260 pmol/day ip for 4 consecutive days, vitamin D-deficient rats on low calcium diet (0.02%), FIG. 4) and “without any substantial effect” in test [4] (2340 pmol/day ip for 4 consecutive days, vitamin D-deficient rats on low calcium diet (0.02%), FIG. 4). Moreover, in test [4] (FIG. 4, overall), the “Bone calcium mobilization activity compared to 1,25(OH)2D3 (in words)” value is listed as “very little bone calcium mobilization activity”. Further, the Intestinal calcium transport result in test [5] (260 pmol/day) and in test [5] (2340 pmol/day) was “does not promote intestinal calcium transport” throughout. The “Stimulating intestinal calcium transport compared to 1,25(OH)2D3 (in words)” value in test [5] (FIG. 5, overall) is listed as “very little activity”.
For the compound `C=C1/C(=C\C=C2/CCC[C@]3(C)[C@@H]([C@H](C)CCCC(C)(C)O)CC[C@@H]23)C[C@@H](O)C[C@@H]1O` [1,25(OH)2D3, 1α,25-dihydroxyvitamin D3, reference compound], the EC50 in test [2] turned out to be 20 nM; in test [3], 0.2 nM. In addition, the “Serum calcium levels (bone calcium mobilization)” value in test [4] (at the dosage tested, vitamin D-deficient rats on low calcium diet (0.02%), FIG. 4) is “increased serum calcium levels”. In addition, the Intestinal calcium transport entry in test [5] (260 pmol/day) is recorded as “promotes a significant increase”.

Broadly, the Ki is a measure of affinity in units of concentration, obtained from inhibition or displacement. As a reminder, the EC50 is the concentration that produces a half-maximal response.

The record behind these values is patent publication US7763598B2, “1α-hydroxy-2-(3′-hydroxypropylidene)-19-nor-vitamin D compounds with a 1,1-dimethylpropyl side chain” (Wisconsin Alumni Research Foundation, priority 2006, dated 2010).
